molecular target: T1, human p38 kinase alpha (Homo sapiens, UniProt Q16539); test: p38 kinase in vitro assay, phosphorylation of biotinylated PHAS-I with 32P-ATP; format: biochemical; conditions: in vitro P38-alpha kinase inhibition; read-out: P38 alpha kinase IC50
T1 construct: GST (N, cleaved yes); made in house; host or cells: E. coli DH10B
Procedure: The coding region of the human p38a cDNA was obtained by PCR-amplification from RNA isolated from the human monocyte cell line THP.1. […] Random primer, dNTP's and Superscript™ reagents were all purchased from Life-Technologies, Gaithersburg, Mass. The reaction was incubated at 42° C. for 1 hour. Amplification of p38 cDNA was performed by aliquoting 5 μl of the reverse transcriptase reaction into a 100 μl PCR reaction containing the following: 80 μl dH2O, 2 μl 50 mM DNTP's, 1 μl each of forward and reverse primers (50 pmol/μl), 10 μl of 10×buffer and 1 μl Expand™ polymerase (Boehringer Mannheim). The PCR primers incorporated BamHI sites onto the 5′ and 3′ end of the amplified fragment, and were purchased from Genosys. […] The PCR amplification was carried out in a DNA Thermal Cycler (Perkin Elmer) by repeating 30 cycles of 94° C. for 1 minute, 60° C. for 1 minute and 68° C. for 2 minutes. After amplification, excess primers and unincorporated dNTP's were removed from the amplified fragment with a Wizard™ PCR prep (Promega) and digested with BamHI (New England Biolabs). The BamHI digested fragment was ligated into BamHI digested PGEX 2T plasmid DNA (PharmaciaBiotech) using T-4 DNA ligase (New England Biolabs) as described by T. Maniatis, Molecular Cloning: A Laboratory Manual, 2nd ed. […] The ligation reaction was transformed into chemically competent E. coli DH10B cells purchased from Life-Technologies following the manufacturer's instructions. Plasmid DNA was isolated from the resulting bacterial colonies using a Promega Wizard™ miniprep kit.
Expression of Human p38a:
Overnight cultures were grown in-Luria Broth (LB) containing […] ampicillin. The next day, 500 ml of fresh LB was inoculated with 10 ml of overnight culture, and grown in a 2 liter flask at 37° C. with constant shaking until the culture reached an absorbance of 0.8 at 600 nm. Expression of the fusion protein was induced by addition of isopropyl b-D-thiogalactosidse (IPTG) to a final concentration of 0.05 mM. The cultures were shaken for three hours at room temperature, and the cells were harvested by centrifugation. The cell pellets were stored frozen until protein purification.
Purification of p38 Kinase-α:
All chemicals were from Sigma Chemical Co. unless noted. Twenty grams of E. coli cell pellet collected from five 1 L shake flask fermentations was resuspended in a volume of PBS (140 mM NaCl, 2.7 mM KCl, 10 mM Na2HPO4, 1.8 mM KH2PO4, pH 7.3) up to 200 ml. The cell suspension was adjusted to 5 mM DTT with 2 M DTT and then split equally into five 50 ml Falcon conical tubes. The cells were sonnicated (Ultrasonics model W375) with a 1 cm probe for 3×1 minutes (pulsed) on ice. Lysed cell material was removed by centrifugation (12,000×g, 15 minutes) and the clarified supernatant applied to glutathione-sepharose resin (Pharmacia).
Glutathione-sepharose Affinity Chromatography:
The resin was collected by centrifugation (600×g, 5 min) and washed with 2×150 ml PBS/1% Triton X-100, followed by 4×40 ml PBS. To cleave the p38 kinase from the GST-p38 fusion protein, the glutathione-sepharose resin was resuspended in 6 ml PBS containing 250 units thrombin protease (Pharmacia, specific activity>7500 units/mg) and mixed gently for 4 hours at room temperature. The glutathione-sepharose resin was removed by centrifugation (600×g, 5 min) and washed 2×6 ml with PBS. The PBS wash fractions and digest supernatant containing p38 kinase protein were pooled and adjusted to 0.3 mM PMSF.
Mono O Anion Exchange Chromatography:
The thrombin-cleaved p38 kinase was further purified by FPLC-anion exchange chromatography.

T1 sequence (Q16539 whole entry): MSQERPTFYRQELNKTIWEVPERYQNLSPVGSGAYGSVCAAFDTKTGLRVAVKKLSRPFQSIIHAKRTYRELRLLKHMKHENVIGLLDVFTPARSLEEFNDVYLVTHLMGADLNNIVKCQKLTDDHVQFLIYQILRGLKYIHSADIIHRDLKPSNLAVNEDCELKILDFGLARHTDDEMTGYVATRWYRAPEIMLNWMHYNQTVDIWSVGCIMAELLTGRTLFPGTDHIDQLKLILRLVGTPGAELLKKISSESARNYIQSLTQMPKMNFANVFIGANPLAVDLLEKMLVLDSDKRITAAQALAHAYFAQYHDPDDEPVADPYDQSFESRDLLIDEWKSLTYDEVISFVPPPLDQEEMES

SMILES | IC50 [nM]
CC(Oc1ccccc1)C(=O)NC(C)c1[nH]nc(-c2ccc(F)cc2)c1-c1ccncc1 (stereo not drawn) [Example B-0558] | 850
CC(NC(=O)c1cnc2ccccc2n1)c1[nH]nc(-c2ccc(F)cc2)c1-c1ccncc1 (stereo not drawn) [Example B-0561] | 2070
CC(NS(=O)(=O)c1ccc(F)cc1)c1[nH]nc(-c2ccc(F)cc2)c1-c1ccncc1 (stereo not drawn) [Example B-0562] | 220
CC(NS(=O)(=O)C(C)C)c1[nH]nc(-c2ccc(F)cc2)c1-c1ccncc1 (stereo not drawn) [Example B-0564] | 820
CC(NS(=O)(=O)Cc1ccccc1)c1[nH]nc(-c2ccc(F)cc2)c1-c1ccncc1 (stereo not drawn) [Example B-0566] | < 100
CC(NS(=O)(=O)c1ccc(F)cc1F)c1[nH]nc(-c2ccc(F)cc2)c1-c1ccncc1 (stereo not drawn) [Example B-0567] | 140
CC(NS(=O)(=O)C(F)(F)F)c1[nH]nc(-c2ccc(F)cc2)c1-c1ccncc1 (stereo not drawn) [Example B-0568] | 1220
CC(NS(=O)(=O)c1ccccc1F)c1[nH]nc(-c2ccc(F)cc2)c1-c1ccncc1 (stereo not drawn) [Example B-0569] | 150
CCCS(=O)(=O)NC(C)c1[nH]nc(-c2ccc(F)cc2)c1-c1ccncc1 (stereo not drawn) [Example B-0570] | 270
CCCCS(=O)(=O)NC(C)c1[nH]nc(-c2ccc(F)cc2)c1-c1ccncc1 (stereo not drawn) [Example B-0571] | 380
CCS(=O)(=O)NC(C)c1[nH]nc(-c2ccc(F)cc2)c1-c1ccncc1 (stereo not drawn) [Example B-0572] | 270
CC(NS(=O)(=O)c1cccs1)c1[nH]nc(-c2ccc(F)cc2)c1-c1ccncc1 (stereo not drawn) [Example B-0575] | 32
COc1ccc(S(=O)(=O)NC(C)c2[nH]nc(-c3ccc(F)cc3)c2-c2ccncc2)cc1OC (stereo not drawn) [Example B-0577] | 91
CC(C)NC(=O)NC(C)c1[nH]nc(-c2ccc(F)cc2)c1-c1ccncc1 (stereo not drawn) [Example B-0578] | 1880
CC(NC(=O)N1CCOCC1)c1[nH]nc(-c2ccc(F)cc2)c1-c1ccncc1 (stereo not drawn) [Example B-0582] | 1030
CC(NC(=O)Nc1ccc(F)cc1)c1[nH]nc(-c2ccc(F)cc2)c1-c1ccncc1 (stereo not drawn) [Example B-0583] | 3930
CC(NC(=O)N(C)C)c1[nH]nc(-c2ccc(F)cc2)c1-c1ccncc1 (stereo not drawn) [Example B-0584] | 660
CC(NC(=O)N(C)c1ccccc1)c1[nH]nc(-c2ccc(F)cc2)c1-c1ccncc1 (stereo not drawn) [Example B-0586] | 810
CC(NC(=O)Nc1ccccc1O)c1[nH]nc(-c2ccc(F)cc2)c1-c1ccncc1 (stereo not drawn) [Example B-0587] | 6840

SMILES | IC50 [nM]
Cc1cccc(C)c1NC(=O)NC(C)c1[nH]nc(-c2ccc(F)cc2)c1-c1ccncc1 (stereo not drawn) [Example B-0588] | 12800
C=CCNC(=O)NC(C)c1[nH]nc(-c2ccc(F)cc2)c1-c1ccncc1 (stereo not drawn) [Example B-0589] | 1710
CC(NC(=O)NCCc1ccccc1)c1[nH]nc(-c2ccc(F)cc2)c1-c1ccncc1 (stereo not drawn) [Example B-0593] | 1220
COc1ccc(NC(=O)NC(C)c2[nH]nc(-c3ccc(F)cc3)c2-c2ccncc2)cc1 (stereo not drawn) [Example B-0596] | 20000
CCN(CC)C(=O)NC(C)c1[nH]nc(-c2ccc(F)cc2)c1-c1ccncc1 (stereo not drawn) [Example B-0597] | 1680
CCNC(=O)NC(C)c1[nH]nc(-c2ccc(F)cc2)c1-c1ccncc1 (stereo not drawn) [Example B-0598] | 2120
CCCOC(=O)NC(C)c1[nH]nc(-c2ccc(F)cc2)c1-c1ccncc1 (stereo not drawn) [Example B-0602] | 970
CCOC(=O)NC(C)c1[nH]nc(-c2ccc(F)cc2)c1-c1ccncc1 (stereo not drawn) [Example B-0603] | 90
CC(NC(=O)C1CCCN1)c1[nH]nc(-c2ccc(F)cc2)c1-c1ccncc1 (stereo not drawn) [Example B-0604] | 300
CC(NC(=O)C1CCCN1)c1[nH]nc(-c2ccc(F)cc2)c1-c1ccncc1 (stereo not drawn) [Example B-0605] | 180
CC(C)OC(=O)NC(C)c1[nH]nc(-c2ccc(F)cc2)c1-c1ccncc1 (stereo not drawn) [Example B-0606] | 170
CC(=O)Nc1nc(C)c(S(=O)(=O)NC(C)c2[nH]nc(-c3ccc(F)cc3)c2-c2ccncc2)s1 (stereo not drawn) [Example B-0607] | 2790
CC(NS(=O)(=O)c1ccc(Br)cc1)c1[nH]nc(-c2ccc(F)cc2)c1-c1ccncc1 (stereo not drawn) [Example B-0609] | < 100
CC(NS(=O)(=O)c1ccc(Cl)cc1)c1[nH]nc(-c2ccc(F)cc2)c1-c1ccncc1 (stereo not drawn) [Example B-0610] | < 100
CC(NS(=O)(=O)CC12CCC(CC1=O)C2(C)C)c1[nH]nc(-c2ccc(F)cc2)c1-c1ccncc1 (stereo not drawn) [Example B-0611] | 650
CC(NS(=O)(=O)c1cc(Cl)ccc1Cl)c1[nH]nc(-c2ccc(F)cc2)c1-c1ccncc1 (stereo not drawn) [Example B-0615] | 80
Cc1cc(C)c(S(=O)(=O)NC(C)c2[nH]nc(-c3ccc(F)cc3)c2-c2ccncc2)c(C)c1 (stereo not drawn) [Example B-0616] | 380
CC(NS(=O)(=O)c1ccc2ccccc2c1)c1[nH]nc(-c2ccc(F)cc2)c1-c1ccncc1 (stereo not drawn) [Example B-0617] | 45
CC(NS(=O)(=O)c1cccc2ccccc12)c1[nH]nc(-c2ccc(F)cc2)c1-c1ccncc1 (stereo not drawn) [Example B-0618] | 370

SMILES | IC50 [nM]
CC(NS(=O)(=O)Cc1ccccc1[N+](=O)[O-])c1[nH]nc(-c2ccc(F)cc2)c1-c1ccncc1 (stereo not drawn) [Example B-0619] | < 100
CC(NS(=O)(=O)c1cccc2cccnc12)c1[nH]nc(-c2ccc(F)cc2)c1-c1ccncc1 (stereo not drawn) [Example B-0620] | 1590
CC(NS(=O)(=O)c1cccc2c(N(C)C)cccc12)c1[nH]nc(-c2ccc(F)cc2)c1-c1ccncc1 (stereo not drawn) [Example B-0621] | 360
CC(NS(=O)(=O)c1cccc(Cl)c1Cl)c1[nH]nc(-c2ccc(F)cc2)c1-c1ccncc1 (stereo not drawn) [Example B-0622] | 76
CC(C)c1ccc(S(=O)(=O)NC(C)c2[nH]nc(-c3ccc(F)cc3)c2-c2ccncc2)cc1 (stereo not drawn) [Example B-0623] | 120
Cc1c(Cl)cccc1S(=O)(=O)NC(C)c1[nH]nc(-c2ccc(F)cc2)c1-c1ccncc1 (stereo not drawn) [Example B-0624] | 85
CC(NS(=O)(=O)c1ccc(Cl)cc1Cl)c1[nH]nc(-c2ccc(F)cc2)c1-c1ccncc1 (stereo not drawn) [Example B-0625] | 23
CC(NS(=O)(=O)c1ccc(F)cc1Cl)c1[nH]nc(-c2ccc(F)cc2)c1-c1ccncc1 (stereo not drawn) [Example B-0626] | < 100
Cc1ccc(F)cc1S(=O)(=O)NC(C)c1[nH]nc(-c2ccc(F)cc2)c1-c1ccncc1 (stereo not drawn) [Example B-0628] | 23
CC(NS(=O)(=O)c1cc(Cl)c(Cl)s1)c1[nH]nc(-c2ccc(F)cc2)c1-c1ccncc1 (stereo not drawn) [Example B-0629] | 200
CC(NS(=O)(=O)c1c(Cl)cccc1Cl)c1[nH]nc(-c2ccc(F)cc2)c1-c1ccncc1 (stereo not drawn) [Example B-0630] | 60
CC(NS(=O)(=O)c1ccccc1Br)c1[nH]nc(-c2ccc(F)cc2)c1-c1ccncc1 (stereo not drawn) [Example B-0631] | 65
CC(NS(=O)(=O)c1cccc(Br)c1)c1[nH]nc(-c2ccc(F)cc2)c1-c1ccncc1 (stereo not drawn) [Example B-0632] | < 100
CCCCOc1ccc(S(=O)(=O)NC(C)c2[nH]nc(-c3ccc(F)cc3)c2-c2ccncc2)cc1 (stereo not drawn) [Example B-0633] | 600
COc1ccc(OC)c(S(=O)(=O)NC(C)c2[nH]nc(-c3ccc(F)cc3)c2-c2ccncc2)c1 (stereo not drawn) [Example B-0634] | 600
CC(NS(=O)(=O)c1ccccc1C(F)(F)F)c1[nH]nc(-c2ccc(F)cc2)c1-c1ccncc1 (stereo not drawn) [Example B-0635] | 150
CC(NS(=O)(=O)c1ccc(C(F)(F)F)cc1)c1[nH]nc(-c2ccc(F)cc2)c1-c1ccncc1 (stereo not drawn) [Example B-0636] | < 100
Cc1cccc(S(=O)(=O)NC(C)c2[nH]nc(-c3ccc(F)cc3)c2-c2ccncc2)c1 (stereo not drawn) [Example B-0638] | 250
CC(NS(=O)(=O)c1ccccc1Cl)c1[nH]nc(-c2ccc(F)cc2)c1-c1ccncc1 (stereo not drawn) [Example B-0640] | 360

Source: patent US6979686B1, “Substituted pyrazoles as p38 kinase inhibitors” (Pharmacia Corporation, priority 2001, dated 2005)
